Laboratory results reported in US20050152847A1, “Novel formulation” (priority 2002, published 2005).
Where a name gives a salt, the structure may show the parent alone.

Key:
[1] = iso-osmotic with serum/saline; cited from earlier work
[2] = Concentration of aqueous solution iso-osmotic with serum/saline; type: physicochemical; settings: expected from number of molecules, not measured
Excerpt: We preferably select an excipient with a concentration of at least >5.5%, preferably >7%—compounds that could be regarded as weak osmolytic or non-osmolytic active compounds—teaching away from WO 00/36915. The selected concentration values are based upon the clinical results presented for lactose and mannitol. The physiological condition is pH 7.4 and 276 mOsm.
The osmotic pressure is proportional to the concentration of the solute for nonelectrolytes. The osmotic pressures of solutions of different nonelectrolytes are proportional to the number of molecules in each solution. This means—when having the same amount in grams—a disaccharide will have about half the osmotic pressure as a monosaccharide, which could also be seen in table 1. This type of generalisations could not be used for electrolytes. All disaccharides (e.g. trehalose) would be expected to have an osmotic pressure corresponding to a solution of at least >7% and trisaccharides (e.g. melezitose, raffinose) needed higher concentration in order to be iso-osmotic with a saline solution. The carbohydrate myo-inositol would be expected to have a concentration of less than 5% for iso-osmolytic activity with saline.

[3] = cited from earlier work
stable asthma patients = settings: fifteen stable asthma patients; lactose dry powder alone; no dosage data given; cited from earlier work
[4] = cited from earlier work; remark: listed apart in the source
[5] = generally regarded; cited from earlier work

| Structure (SMILES) | Concentration of aqueous solution iso-osmotic with serum (%) [1] | other results |
| --- | --- | --- |
| O=C1O[C@H]([C@@H](O)CO)C(O)=C1O [Ascorbic acid] | 5.9% | – |
| O=C[C@H](O)[C@@H](O)[C@@H](O)[C@H](O)CO [Galactose] | 4.9% | – |
| OC[C@@H](O)[C@@H](O)[C@H](O)[C@H](O)CO [Mannitol] | 5.1% | – |
| O[C@H]1[C@H](O)[C@@H](O)[C@H](O)[C@@H](O)[C@H]1O [myo-inositol] | – | Expected concentration of solution iso-osmotic with saline [2]: less than 5% |
| CCN(CC)CC(=O)Nc1c(C)cccc1C [Lidocaine-HCl, reference compound] | 4.4% | – |
| OC[C@@H](O)[C@@H](O)[C@H](O)[C@@H](O)CO [Sorbitol] | 5.5% | – |
| O=C1O[C@H]([C@@H](O)CO)C([O-])=C1O.[Na+] [Sodium ascorbate] | 3.0% | – |
| OC[C@H]1O[C@@](CO)(O[C@H]2O[C@H](CO)[C@@H](O)[C@H](O)[C@H]2O)[C@@H](O)[C@@H]1O [Sucrose] | 9.3% | Moisture sensitivity ([3]; submitted to humidity): very moisture sensitive |
| OC[C@H]1O[C@@H](O[C@H]2[C@H](O)[C@@H](O)C(O)O[C@@H]2CO)[C@H](O)[C@@H](O)[C@H]1O (stereo partly drawn) [Lactose] | 9.8% | Bronchoconstriction after inhalation of dry powder (stable asthma patients): caused bronchoconstriction |
| OC[C@@H](O)[C@@H](O[C@H]1O[C@H](CO)[C@@H](O)[C@H](O)[C@H]1O)[C@H](O)[C@@H](O)CO [Maltitol] | 10% | Stability of water solution ([4]; pH 4-9 even at higher temperatures): very stable; Stability of water solution (time stable) ([4]; room temperature and pH 2-9): at least 2 years; Relative humidity at which moisture is absorbed ([3]; 20° C.): ≥ 89%; Toxicity, allergenicity, irritancy [5]: nontoxic, nonallergenic and nonirritant |
| O=C(CO)[C@@H](O)[C@H](O)[C@H](O)CO [Fructose] | 5.1% | – |
| Cc1cc(C(C)(C)C)c(O)c(C)c1CC1=NCCN1.Cl [Oxymethazoline-HCl, reference compound] | 4.9% | – |
| OC[C@@H](O)[C@H](O)[C@@H](O)CO [Xylitol] | 4.6% | – |
| [Cl-].[Na+] [Sodium chloride] | 0.9% | – |
| OC[C@@H](O)[C@@H](O[C@@H]1O[C@H](CO)[C@H](O)[C@H](O)[C@H]1O)[C@H](O)[C@@H](O)CO [Lactitol] | 7% | – |
